16 compounds from patent US9040545B2, “Heterocyclyl pyrazolopyrimidine analogues as selective JAK inhibitors” (Cellzome Limited, priority 2010, dated 2015) can be followed below.

One test concerns the target T1, JAK2 (Homo sapiens, UniProt O60674).
T1 construct: endogenous in cells; host or cells: mixed Molt4/Ramos lysate (1:2)
The experiment in a line: Kinobeads assay, JAK2. It is filed as binding. The conditions noted are these: mixed Molt4/Ramos lysate, read-out: Inhibition values (IC50) JAK2. As to the method: (§1) The compounds of the present invention as described in the previous examples were tested in a Kinobeads™ assay as described for ZAP-70 (WO-A 2007/137867). Briefly, test compounds (at various concentrations) and the affinity matrix with the immobilized aminopyrido-pyrimidine ligand 24 were added to cell lysate aliquots and allowed to bind to the proteins in the lysate sample. After the incubation time the beads with captured proteins were separated from the lysate. Bound proteins were then eluted and the presence of JAK2 and JAK3 was detected and quantified using specific antibodies in a dot blot procedure and the Odyssey infrared detection system. Dose response curves for individual kinases were generated and IC50 values calculated. Kinobeads™ assays for ZAP-70 (WO-A 2007/137867) and for kinase selectivity profiling (WO-A 2006/134056) have been previously described.
(§2) The affinity matrix was washed two times with 15 mL of 1×DP buffer containing 0.2% NP40 (IGEPAL® CA-630, Sigma, #I3021) and then resuspended in 1×DP buffer containing 0.2% NP40 (3% beads slurry).
(§3) 5×DP buffer 250 mM Tris-HCl pH 7.4, 25% Glycerol, 7.5 mM MgCl2, 750 mM NaCl, 5 mM Na3VO4; filter the 5×DP buffer through a 0.22 μm filter and store in aliquots at −80° C. The 5×DP buffer is diluted with H2O to 1×DP buffer containing 1 mM DTT and 25 mM NaF.
(§4) Stock solutions of test compounds were prepared in DMSO. In a 96 well plate 30 μL solution of diluted test compounds at 5 mM in DMSO were prepared. Starting with this solution a 1:3 dilution series (9 steps) was prepared. For control experiments (no test compound) a buffer containing 2% DMSO was used.
(§5) Molt4 cells (ATCC catalogue number CRL-1582) and Ramos cells (ATCC catalogue number CRL-1596) were grown in 1 L Spinner flasks (Integra Biosciences, #182101) in suspension in RPMI 1640 medium (Invitrogen, #21875-034) supplemented with 10% Fetal Bovine Serum (Invitrogen) at a density between 0.15×106 and 1.2×10^6 cells/mL. Cells were harvested by centrifugation, washed once with 1×PBS buffer (Invitrogen, #14190-094) and cell pellets were frozen in liquid nitrogen and subsequently stored at −80° C. Cells were homogenized in a Potter S homogenizer in lysis buffer: 50 mM Tris-HCl, 0.8% NP40, 5% glycerol, 150 mM NaCl, 1.5 mM MgCl2, 25 mM NaF, 1 mM sodium vanadate, 1 mM DTT, pH 7.5. One complete EDTA-free tablet (protease inhibitor cocktail, Roche Diagnostics, 1873580) per 25 mL buffer was added. The material was dounced 10 times using a mechanized POTTER S, transferred to 50 mL falcon tubes, incubated for 30 minutes on ice and spun down for 10 minutes at 20,000 g at 4° C. (10,000 rpm in Sorvall SLA600, precooled). The supernatant was transferred to an ultracentrifuge (UZ)-polycarbonate tube (Beckmann, 355654) and spun for 1 hour at 100,000 g at 4° C. (33.500 rpm in Ti50.2, precooled). The supernatant was transferred again to a fresh 50 mL falcon tube, the protein concentration was determined by a Bradford assay (BioRad) and samples containing 50 mg of protein per aliquot were prepared. The samples were immediately used for experiments or frozen in liquid nitrogen and stored frozen at −80° C.
(§6) Cell lysate (approximately 50 mg protein per plate) was thawed in a water bath at room temperature and then stored on ice. To the thawed cell lysate 1×DP 0.8% NP40 buffer containing protease inhibitors (1 tablet for 25 mL buffer; EDTA-free protease inhibitor cocktail; Roche Diagnostics 1873580) was added in order to reach a final protein concentration of 10 mg/mL total protein. The diluted cell lysate was stored on ice. Mixed Molt4/Ramos lysate was prepared by combining one volume of Molt4 lysate and two volumes of Ramos lysate (ratio 1:2).
(§7) To a 96 well filter plate (Multiscreen HTS, BV Filter Plates, Millipore #MSBVN1250) were added per well: 100 μL affinity matrix (3% beads slurry), 3 μL of compound solution, and 50 μL of diluted lysate. […]

Another test addresses T2, JAK3 (Homo sapiens, UniProt P52333).
T2 construct: endogenous in cells; host or cells: mixed Molt4/Ramos lysate (1:2)
T2 sequence (P52333 1-1124): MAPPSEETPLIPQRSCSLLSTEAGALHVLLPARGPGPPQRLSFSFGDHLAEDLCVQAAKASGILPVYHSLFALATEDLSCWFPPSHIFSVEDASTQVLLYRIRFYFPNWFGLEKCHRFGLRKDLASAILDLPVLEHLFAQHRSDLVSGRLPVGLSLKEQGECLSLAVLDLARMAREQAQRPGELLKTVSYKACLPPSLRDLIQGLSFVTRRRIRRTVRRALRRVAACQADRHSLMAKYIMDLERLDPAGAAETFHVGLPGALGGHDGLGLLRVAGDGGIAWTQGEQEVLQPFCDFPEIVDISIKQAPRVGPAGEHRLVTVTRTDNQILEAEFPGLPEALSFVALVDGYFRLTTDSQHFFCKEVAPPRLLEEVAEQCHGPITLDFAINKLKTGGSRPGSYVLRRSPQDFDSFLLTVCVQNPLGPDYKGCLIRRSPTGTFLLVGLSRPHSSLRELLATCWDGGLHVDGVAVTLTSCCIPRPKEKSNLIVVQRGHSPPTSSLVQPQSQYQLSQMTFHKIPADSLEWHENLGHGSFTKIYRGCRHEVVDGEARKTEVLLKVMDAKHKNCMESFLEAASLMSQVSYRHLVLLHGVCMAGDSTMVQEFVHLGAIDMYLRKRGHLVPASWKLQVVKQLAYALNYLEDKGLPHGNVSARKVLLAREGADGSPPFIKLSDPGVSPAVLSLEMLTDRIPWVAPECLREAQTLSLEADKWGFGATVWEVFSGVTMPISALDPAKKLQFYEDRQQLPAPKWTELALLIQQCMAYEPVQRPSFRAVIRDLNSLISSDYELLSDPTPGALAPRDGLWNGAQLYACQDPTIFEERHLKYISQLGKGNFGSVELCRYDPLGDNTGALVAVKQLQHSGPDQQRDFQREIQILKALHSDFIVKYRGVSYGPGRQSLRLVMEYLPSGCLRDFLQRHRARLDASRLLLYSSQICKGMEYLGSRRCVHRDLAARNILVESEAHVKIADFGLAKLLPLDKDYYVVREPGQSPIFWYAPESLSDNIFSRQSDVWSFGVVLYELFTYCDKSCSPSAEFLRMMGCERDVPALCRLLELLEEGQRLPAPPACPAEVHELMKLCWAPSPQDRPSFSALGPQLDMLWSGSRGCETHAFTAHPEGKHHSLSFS
As to the kind of experiment: Kinobeads assay, JAK3. It is filed as binding. Conditions: mixed Molt4/Ramos lysate, read-out: Inhibition values (IC50) JAK3. As for the experimental part:
as §1, §2, §3, §4, §5, §6, §7

The structures appear in SMILES notation.

T1 sequence (O60674 whole entry): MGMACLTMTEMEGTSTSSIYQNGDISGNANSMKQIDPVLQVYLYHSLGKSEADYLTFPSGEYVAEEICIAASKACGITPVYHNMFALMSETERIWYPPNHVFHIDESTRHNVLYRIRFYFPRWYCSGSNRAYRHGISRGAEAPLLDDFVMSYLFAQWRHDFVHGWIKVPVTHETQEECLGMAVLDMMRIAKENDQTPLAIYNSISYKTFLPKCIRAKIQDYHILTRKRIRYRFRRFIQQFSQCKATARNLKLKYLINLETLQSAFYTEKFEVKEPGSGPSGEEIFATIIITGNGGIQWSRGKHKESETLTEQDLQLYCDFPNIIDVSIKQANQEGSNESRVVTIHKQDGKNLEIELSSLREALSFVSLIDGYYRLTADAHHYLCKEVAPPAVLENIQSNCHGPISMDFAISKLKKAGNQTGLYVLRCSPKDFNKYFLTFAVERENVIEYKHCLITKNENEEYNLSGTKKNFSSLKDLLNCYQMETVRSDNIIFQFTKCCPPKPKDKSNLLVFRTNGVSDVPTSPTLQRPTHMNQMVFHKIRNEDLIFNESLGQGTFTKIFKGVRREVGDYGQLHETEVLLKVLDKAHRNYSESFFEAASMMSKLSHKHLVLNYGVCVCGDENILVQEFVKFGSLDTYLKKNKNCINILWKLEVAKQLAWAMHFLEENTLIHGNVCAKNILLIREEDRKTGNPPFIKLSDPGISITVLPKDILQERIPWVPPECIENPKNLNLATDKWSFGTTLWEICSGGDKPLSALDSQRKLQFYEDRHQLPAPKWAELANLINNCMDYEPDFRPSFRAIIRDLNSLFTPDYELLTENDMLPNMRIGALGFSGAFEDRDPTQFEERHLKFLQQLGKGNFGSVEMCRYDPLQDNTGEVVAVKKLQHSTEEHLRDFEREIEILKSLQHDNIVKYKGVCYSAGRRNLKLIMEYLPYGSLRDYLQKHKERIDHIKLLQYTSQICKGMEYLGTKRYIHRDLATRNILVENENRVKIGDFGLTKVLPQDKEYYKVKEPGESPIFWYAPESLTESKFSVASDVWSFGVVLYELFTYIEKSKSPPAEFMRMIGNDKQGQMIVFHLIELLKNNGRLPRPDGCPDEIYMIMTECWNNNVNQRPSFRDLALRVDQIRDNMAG

By IC50 is commonly meant the point on the concentration scale where inhibition reaches its midpoint. With `Cn1cc(Nc2ncc3cnn(Cc4cc(F)cc(N5CC6(COC6)C5)c4)c3n2)cn1` [Example 90, 1-(3-fluoro-5-(2-oxa-6-azaspiro[3.3]heptan-6-yl)benzyl)-N-(1-methyl-1H-pyrazol-4-yl)-1H-pyrazolo[3,4-d]pyrimidin-6-amine], the IC50 is 1000 to 10000 nM on JAK2 and under 100 nM at JAK3.
The corresponding values for `Cn1cc(Nc2ncc3cnn(Cc4c(F)c(F)cc(N5CCOCC5)c4F)c3n2)cn1` [Example 17, N-(1-Methyl-1H-pyrazol-4-yl)-1-(2,3,6-trifluoro-5-morpholinobenzyl)-1H-pyrazolo[3,4-d]pyrimidin-6-amine] are 1000 to 10000 nM and under 100 nM.
For `Cn1cc(-c2cc(F)c(F)c(Cn3ncc4cnc(Nc5cnn(CCO)c5)nc43)c2)cn1` [Example 127, 2-(4-((1-(2,3-difluoro-5-(1-methyl-1H-pyrazol-4-yl)benzyl)-1H-pyrazolo[3,4-d]pyrimidin-6-yl)amino)-1H-pyrazol-1-yl)ethanol], the IC50 on JAK2 was 1000 to 10000 nM; at JAK3, under 100 nM.
The corresponding values for `CN(C)C(=O)CCn1cc(Nc2ncc3cnn(Cc4cccc(N5CCOCC5)c4)c3n2)cn1` [Example 16, N,N-Dimethyl-3-(4-((1-(3-morpholinobenzyl)-1H-pyrazolo[3,4-d]pyrimidin-6-yl)amino)-1H-pyrazol-1-yl)propanamide] are 1000 to 10000 nM and under 100 nM.
For `Cn1cc(Nc2ncc3cnn(Cc4cccc(N5CCOCC5)c4F)c3n2)cn1` [Example 21, 1-(2-Fluoro-3-morpholinobenzyl)-N-(1-methyl-1H-pyrazol-4-yl)-1H-pyrazolo[3,4-d]pyrimidin-6-amine] the same measures were 1000 to 10000 nM and under 100 nM.
The corresponding values for `OCCn1cc(Nc2ncc3cnn(Cc4cc(F)cc(N5CCNCC5)c4)c3n2)cn1` [Example 93, 2-(4-((1-(3-fluoro-5-(piperazin-1-yl)benzyl)-1H-pyrazolo[3,4-d]pyrimidin-6-yl)amino)-1H-pyrazol-1-yl)ethanol] are 1000 to 10000 nM and under 100 nM.
For the compound `Cn1cc(Nc2ncc3cnn(Cc4cccc(N5CCOCC5)n4)c3n2)cn1` [Example 3, N-(1-Methyl-1H-pyrazol-4-yl)-1-((6-morpholinopyridin-2-yl)methyl)-1H-pyrazolo[3,4-d]pyrimidin-6-amine], the values for the half-maximal inhibitory concentration (IC50) at JAK2 and on JAK3 were at least 10000 nM and under 100 nM, respectively.
The corresponding values for `Cn1cc(Nc2ncc3cnn(Cc4cccc(N5CCC(F)(F)CC5)c4)c3n2)cn1` [Example 19, 1-(3-(4,4-Difluoropiperidin-1-yl)benzyl)-N-(1-methyl-1H-pyrazol-4-yl)-1H-pyrazolo[3,4-d]pyrimidin-6-amine] are at least 10000 nM and 100 to 1000 nM.
Consider `Cn1cc(Nc2ncc3cnn(Cc4cccc(-c5cnn(C)c5)c4F)c3n2)cn1` [Example 123, 1-(2-fluoro-3-(1-methyl-1H-pyrazol-4-yl)benzyl)-N-(1-methyl-1H-pyrazol-4-yl)-1H-pyrazolo[3,4-d]pyrimidin-6-amine], for which the figures for the 50% inhibitory concentration (IC50) on JAK2 and on JAK3 were 1000 to 10000 nM and under 100 nM, respectively.
The corresponding values for `NC(=O)CCn1cc(Nc2ncc3cnn(Cc4cccc(N5CCOCC5)c4)c3n2)cn1` [Example 14, 3-(4-((1-(3-Morpholinobenzyl)-1H-pyrazolo[3,4-d]pyrimidin-6-yl)amino)-1H-pyrazol-1-yl)propanamide] are at least 10000 nM and under 100 nM.
For `CCn1cc(-c2cccc(Cn3ncc4cnc(Nc5cnn(C)c5)nc43)c2)cn1` [Example 116, 1-(3-(1-ethyl-1H-pyrazol-4-yl)benzyl)-N-(1-methyl-1H-pyrazol-4-yl)-1H-pyrazolo[3,4-d]pyrimidin-6-amine] the same measures were 1000 to 10000 nM and under 100 nM.
For `O=C(CCn1cc(Nc2ncc3cnn(Cc4cccc(N5CCOCC5)c4)c3n2)cn1)NC1CC1` [Example 35, N-Cyclopropyl-3-(4-((1-(3-morpholinobenzyl)-1H-pyrazolo[3,4-d]pyrimidin-6-yl)amino)-1H-pyrazol-1-yl)propanamide] the same measures were at least 10000 nM and under 100 nM.
With `O=C1CCCN1CCCn1cc(Nc2ncc3cnn(Cc4cccc(N5CCOCC5)c4)c3n2)cn1` [Example 30, 1-(3-(4-((1-(3-Morpholinobenzyl)-1H-pyrazolo[3,4-d]pyrimidin-6-yl)amino)-1H-pyrazol-1-yl)propyl)pyrrolidin-2-one], the IC50 on JAK2 was at least 10000 nM; on JAK3, under 100 nM.
For `Cn1cc(Nc2ncc3cnn(Cc4cccc(N5CCOCC5)c4Cl)c3n2)cn1` [Example 103, 1-(2-chloro-3-morpholinobenzyl)-N-(1-methyl-1H-pyrazol-4-yl)-1H-pyrazolo[3,4-d]pyrimidin-6-amine] the same measures were 1000 to 10000 nM and under 100 nM.
As for `Cn1cc(Nc2ncc3cnn(Cc4cccc(C(=O)N5CCOCC5)c4)c3n2)cn1` [Example 6, (3-((6-((1-Methyl-1H-pyrazol-4-yl)amino)-1H-pyrazolo[3,4-d]pyrimidin-1-yl)methyl)phenyl)(morpholino)methanone], the figures for the IC50 on JAK2 and on JAK3 were at least 10000 nM and under 100 nM, respectively.
`OCCCn1cc(Nc2ncc3cnn(Cc4cccc(N5CCOCC5)c4)c3n2)cn1` [Example 18, 3-(4-((1-(3-Morpholinobenzyl)-1H-pyrazolo[3,4-d]pyrimidin-6-yl)amino)-1H-pyrazol-1-yl)propan-1-ol]: the results for the concentration for half-maximal inhibition (IC50) at JAK2 and on JAK3 were at least 10000 nM and under 100 nM, respectively.
